Results: patent US8796313B2, “Substituted dihydroisoindolones as allosteric modulators of glucokinase” (Janssen Pharmaceutica N.V., priority 2005, dated 2014)

Target: T1, human pancreas Glucokinase (GK) (Homo sapiens, UniProt P35557)
T1 construct: His6; made in house; host or cells: Escherichia coli
T1 sequence (P35557 1-465): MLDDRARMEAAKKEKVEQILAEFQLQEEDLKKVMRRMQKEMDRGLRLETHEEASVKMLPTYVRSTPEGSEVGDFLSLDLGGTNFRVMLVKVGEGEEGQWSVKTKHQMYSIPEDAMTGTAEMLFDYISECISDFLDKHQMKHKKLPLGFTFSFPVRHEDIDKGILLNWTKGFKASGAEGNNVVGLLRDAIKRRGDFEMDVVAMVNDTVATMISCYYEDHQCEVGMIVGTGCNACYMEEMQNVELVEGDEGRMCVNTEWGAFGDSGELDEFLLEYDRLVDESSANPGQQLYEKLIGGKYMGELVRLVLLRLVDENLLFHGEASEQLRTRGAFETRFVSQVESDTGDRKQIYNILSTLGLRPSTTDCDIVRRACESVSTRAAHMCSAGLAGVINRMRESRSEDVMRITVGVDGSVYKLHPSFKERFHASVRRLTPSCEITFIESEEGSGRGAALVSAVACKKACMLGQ
Test: Glucokinase enzyme assay, pancreas GK
Format: biochemical
Conditions: for EC50: concentration that produces 50% activation above vehicle control; for EC100%: concentration that produces 100% activation above vehicle control; for activation at 50 µM: increase in GK activity above vehicle control, compound 50 μM, 12 mM glucose; for % Activation @ 5 μM: cell states @ 5 μM instead of the head's 50 μM
Excerpt: An enzymatic Glucokinase (GK) assay using purified recombinant human liver/pancreas enzyme was used to evaluate the effects of potential small molecule modulators.
In this assay, GK catalyzes glucose phosphorylation in the presence of ATP. The product of this reaction, glucose-6-phosphate, was then oxidized by an excess of glucose-6-phosphate dehydrogenase to produce gluconate-6-phosphate with concomitant reduction of nicotinamide adenine dinucleotide (NAD). […] Human GK (Liver/Pancreas) was expressed in Escherichia coli as a (His) 6-tagged fusion protein and was purified by metal chelate affinity chromatography. The assay was performed in a final incubation volume of 80 μl in a 96-well clear low UV absorption plates. The incubation mixture consisted of 25 mM HEPES, 2 mM MgSO4, 1 mM dithiothreotol (DTT), 1 mg/mL bovine serum albumin (BSA), 1 mM ATP, 1 mM NAD, and 12 mM glucose, 10 units per mL glucose-6-phosphate dehydrogenase, and +/−300 ng per mL GK. For determination of the affinity (Km) and Vmax, different concentrations of glucose ranging from 0.5 mM to 40 mM were used in the assay; see Grimsby, J., Sarabu, R.; Grippo, J. F.; et. al. Science 2003, 301, 370-373. […] EC50% (μM) was calculated as the effective concentration of the compound that produces 50% activation above the vehicle control, and EC100% (μM) was calculated as the effective concentration of the compound that produces 100% activation above the vehicle control.

Compound | EC50 | EC100% | activation at 50 µM | % Activation @ 5 μM
O=C(CCC1c2c(F)ccc(F)c2C(=O)N1Cc1ccc(F)cc1)Nc1ccc(C(F)(F)F)cn1 (stereo not shown) [Compound 18, 3-[4,7-Difluoro-2-(4-fluoro-benzyl)-3-oxo-2,3-dihydro-1H-isoindol-1-yl]-N-(5-trifluoromethyl-pyridin-2-yl)-propionamide] | 2000 nM | 46 µM | 95% | –
COc1ccc(CN2C(=O)c3ccccc3C2CCS(=O)(=O)Nc2nccs2)cc1 (stereo not shown) [Compound 10, 2-[2-(4-Methoxy-benzyl)-3-oxo-2,3-dihydro-1H-isoindol-1-yl]-ethanesulfonic acid thiazol-2-ylamide] | – | – | 15.8% | –
CN(C)c1ccc(CN2C(=O)c3cccc(F)c3C2CCC(=O)Nc2ccc(C(=O)O)cn2)cc1 (stereo not shown) [Compound 49, 6-{3-[2-(4-Dimethylamino-benzyl)-7-fluoro-3-oxo-2,3-dihydro-1H-isoindol-1-yl]-propionylamino}-nicotinic acid] | 60 nM | 0.34 µM | 212% | –
O=C(CCC1c2cccc(F)c2C(=O)N1Cc1ccc(F)cc1)Nc1ccc(C(=O)O)cn1 (stereo not shown) [Compound 15, 6-{3-[4-Fluoro-2-(4-fluoro-benzyl)-3-oxo-2,3-dihydro-1H-isoindol-1-yl]-propionylamino}-nicotinic acid] | 530 nM | 3.4 µM | 188% | –
O=C(CCC1c2c(F)cccc2C(=O)N1Cc1ccc(F)cc1)Nc1ccc(C(=O)OCc2ccccc2)cn1 (stereo not shown) [Compound 46, 6-{3-[7-Fluoro-2-(4-fluoro-benzyl)-3-oxo-2,3-dihydro-1H-isoindol-1-yl]-propionylamino}-nicotinic acid benzyl ester] | 219 nM | 1.2 µM | – | 133 @ 5 μM %
O=C(CCC1c2c(F)cccc2C(=O)N1Cc1ccc(F)cc1)Nc1ccccn1 (stereo not shown) [Compound 12, 3-[7-Fluoro-2-(4-fluoro-benzyl)-3-oxo-2,3-dihydro-1H-isoindol-1-yl]-N-pyridin-2-vi-propionamide] | 94 nM | 0.74 µM | 179% | –
Cc1ccc(NC(=O)CCC2c3c(F)cccc3C(=O)N2Cc2ccc(F)cc2)nc1 (stereo not shown) [Compound 41, 3-[7-Fluoro-2-(4-fluoro-benzyl)-3-oxo-2,3-dihydro-1H-isoindol-1-yl]-N-(5-methyl-pyridin-2-yl)-propionamide] | 54 nM | 0.48 µM | 191% | –
COc1ccc(CN2C(=O)c3ccccc3C2CNC(=O)Nc2ccccn2)cc1 (stereo not shown) [Compound 24, 1-[2-(4-Methoxy-benzyl)-3-oxo-2,3-dihydro-1H-isoindol-1-ylmethyl]-3-pyridin-2-yl-urea] | – | – | 4.39% | –
COC(=O)c1ccc(NC(=O)CCC2c3c(F)cccc3C(=O)N2Cc2ccc(F)cc2)nc1 (stereo not shown) [Compound 26, 6-{3-[7-Fluoro-2-(4-fluoro-benzyl)-3-oxo-2,3-dihydro-1H-isoindol-1-yl]-propionylamino}-nicotinic acid methyl ester] | 25 nM | 0.46 µM | 173% | –
COC(=O)c1ccc(NC(=O)CCC2c3ccccc3C(=O)N2Cc2ccc(OC)cc2)nc1 (stereo not shown) [Compound 9, 6-{3-[2-(4-Methoxy-benzyl)-3-oxo-2,3-dihydro-1H-isoindol-1-yl]-propionylamino}-nicotinic acid methyl ester] | 400 nM | 1.7 µM | 172% | –
O=C(CCC1c2c(F)ccc(F)c2C(=O)N1Cc1ccc(F)cc1)Nc1nc(C(=O)O)cs1 (stereo not shown) [Compound 25, 2-{3-[4,7-Difluoro-2-(4-fluoro-benzyl)-3-oxo-2,3-dihydro-1H-isoindol-1-yl]-propionylamino}-thiazole-4-carboxylic acid] | – | – | 72.5% | –
O=C(CCC1c2c(F)cccc2C(=O)N1Cc1ccc(F)cc1)Nc1cccc[n+]1[O-] (stereo not shown) [Compound 40, 3-[7-Fluoro-2-(4-fluoro-benzyl)-3-oxo-2,3-dihydro-1H-isoindol-1-yl]-N-(1-oxy-pyridin-2-yl)-propionamide] | – | – | 52.3% | –
CC(=O)c1ccc(NC(=O)CCC2c3c(F)cccc3C(=O)N2Cc2ccc(F)cc2)nc1 (stereo not shown) [Compound 37, N-(5-Acetyl-pyridin-2-yl)-3-[7-fluoro-2-(4-fluoro-benzyl)-3-oxo-2,3-dihydro-1H-isoindol-1-yl]-propionamide] | 54 nM | 0.225 µM | 259% | –
O=C(CCC1c2c(F)ccc(F)c2C(=O)N1Cc1ccc(F)cc1)Nc1ccc(C(=O)O)cn1 (stereo not shown) [Compound 20, 6-{3-[4,7-Difluoro-2-(4-fluoro-benzyl)-3-oxo-2,3-dihydro-1H-isoindol-1-yl]-propionylamino}-nicotinic acid] | 203 nM | 0.65 µM | 302% | –
O=C(O)Cc1csc(NC(=O)CCC2c3c(F)ccc(F)c3C(=O)N2Cc2ccc(F)cc2)n1 (stereo not shown) [Compound 22, (2-{3-[4,7-Difluoro-2-(4-fluoro-benzyl)-3-oxo-2,3-dihydro-1H-isoindol-1-yl]-propionylamino}-thiazol-4-yl)-acetic acid] | 21000 nM | 188 µM | 73.7% | –
O=C(CCC1c2c(F)cccc2C(=O)N1Cc1ccc(F)cc1)Nc1ccc(C(=O)O)cn1 (stereo not shown) [Compound 11, 6-{3-[7-Fluoro-2-(4-fluoro-benzyl)-3-oxo-2,3-dihydro-1H-isoindol-1-yl]-propionylamino}-nicotinic acid] | 67 nM | 0.128 µM | 229% | –
O=C(CCC1c2c(F)cccc2C(=O)N1Cc1ccc(F)cc1)Nc1ccc(-c2ccccc2)cn1 (stereo not shown) [Compound 31, 3-[7-Fluoro-2-(4-fluoro-benzyl)-3-oxo-2,3-dihydro-1H-isoindol-1-yl]-N-(5-phenyl-pyridin-2-yl)-propionamide] | 1900 nM | 300 µM | 64.1% | –
O=C(CCC1c2c(F)cccc2C(=O)N1Cc1ccc(F)cc1)Nc1ccc2ccccc2n1 (stereo not shown) [Compound 28, 3-[7-Fluoro-2-(4-fluoro-benzyl)-3-oxo-2,3-dihydro-1H-isoindol-1-yl]-N-quinolin-2-yl-propionamide] | 130 nM | 6.3 µM | 120% | –
O=C(CCC1c2c(F)cccc2C(=O)N1Cc1ccc(F)cc1)Nc1ccc(F)cn1 (stereo not shown) [Compound 14, 3-[7-Fluoro-2-(4-fluoro-benzyl)-3-oxo-2,3-dihydro-1H-isoindol-1-yl]-N-(5-fluoro-pyridin-2-yl)-propionamide] | 108 nM | 0.699 µM | 219% | –
CCOC(=O)/C=C/c1ccc(NC(=O)CCC2c3c(F)cccc3C(=O)N2Cc2ccc(F)cc2)nc1 (stereo not shown) [Compound 45, 3-(6-{3-[7-Fluoro-2-(4-fluoro-benzyl)-3-oxo-2,3-dihydro-1H-isoindol-1-yl]-propionylamino}-pyridin-3-yl)-acrylic acid ethyl ester] | 125 nM | 0.813 µM | – | 138 @ 5 μM %
COCOCc1ccc(NC(=O)CCC2c3c(F)cccc3C(=O)N2Cc2ccc(F)cc2)nc1 (stereo not shown) [Compound 30, 3-[7-Fluoro-2-(4-fluoro-benzyl)-3-oxo-2,3-dihydro-1H-isoindol-1-yl]-N-(5methoxymethoxymethyl-pyridin-2-yl)-propionamide] | 230 nM | 1.2 µM | 175% | –
O=C(CCC1c2ccccc2C(=O)N1Cc1ccc(F)cc1)Nc1ccc(C(=O)O)cn1 (stereo not shown) [Compound 7, 6-{3-[2-(4-Fluoro-benzyl)-3-oxo-2,3-dihydro-1H-isoindol-1-yl]-propionylamino}-nicotinic acid] | 3900 nM | 15 µM | 153% | –
